Measurements reported in patent US20080306166A1, “Compositions and Methods For Treatment of Disorders of Protein Aggregation” (priority 2004, published 2008).
“Also recorded” adds a separate entry of the source. Marks after values point to notes of the source that are not given here.

How the values were obtained:
TgCRND8 mice [1] = assay: Morris Water Maze spatial reference memory test in TgCRND8 mice; type: in vivo, mouse
Procedure: Mice. […] This initial dosage was chosen based upon the dosage of myo-cyclohexanehexyl (6-18 grams/day/adult or 86-257 mg/Kg/day) that is typically administered to human patients for various psychiatric disorders. […] A cohort of animals (n=10 mice per treatment arm) entered the study at five months of age, and outcomes were then analyzed after one month of treatment. The body weight, coat characteristics and in cage behaviour were monitored. Mannitol was used as a negative control for potential alterations in caloric intake. All experiments were performed according to the Canadian Council on Animal Care guidelines. Behavioural tests: Morris Water Maze testing was performed as previously described. After non-spatial pre-training, mice underwent place discrimination training for 5 days with 4-trials per day, followed by a cued visible platform to rule out general motivational, learning deficits and motor problems, and a probe trial to evaluate memory. […] Open field test for motor activity was preformed as described previously. Duration of walking, pausing and grooming were analyzed as indices of spontaneous locomotor activity. Sensorimotor function was examined with an Economex™ accelerating rotarod (Columbus Instruments, Columbus, Ohio), as described elsewhere. The rod was set to accelerate at a rate of 0.2 r.p.m./s, from an initial, constant speed of 5 r.p.m. Latency to fall was recorded in four daily trials, conducted at 30 min intervals. All mice were trained for seven days before testing. The test day performance score for each animal was obtained by summing its latency to fall over the four trials. Cerebral amyloid burden. Brains were removed and one hemisphere was fixed in 4% paraformaldehyde and embedded in paraffin wax in the mid sagittal plane. To generate sets of systematic uniform random sections, 5 μm serial sections were collected across the entire hemisphere. Sets of sections at 50 μm intervals were used for analyses (10-14 sections/set). Plaques were identified after antigen retrieval with formic acid, and incubation with primary anti-AD antibody (Dako M-0872), followed by secondary antibody (Dako StreptABCcomplex/horseradish kit). End products were visualized with DAB and were counter-stained with luxol fast blue. Amyloid plaque burden was assessed with Leco IA-3001 image analysis software interfaced with Leica microscope and Hitachi KP-M1U CCD video camera. Openlab imaging software (Improvision, Lexington, Mass.) was then used to convert micrographs to binary images for plaque number and plaque area determinations. Vascular amyloid burden was defined as amyloid originating from or surrounding blood vessels and was analysed similarly. Plasma and Cerebral Aβ Content. Hemi-brain samples were homogenized in a buffered sucrose solution, followed by either 0.4% diethylamine/100 mM NaCl for soluble Aβ levels or cold formic acid for the isolation of total Aβ. After neutralization, the samples were diluted and analyzed for Aβ40 and Aβ42 using commercially available kits (BIOSOURCE International). Each hemisphere was analyzed intriplicate and the mean values ±SEM reported. Western blot analyses were performed on all fractions using urea gels for Aβ species analyses. Aβ was detected using 6E10 (BIOSOURCE International) and Enhanced Chemiluminenscence (Amersham). Gliosis Quantitation. Five randomly selected, evenly spaced, sagittal sections were collected from paraformaldehyde-fixed and frozen hemispheres of treated and control mice. […]

TgCRND8 mice [2] = assay: Cerebral amyloid plaque burden (anti-Aβ immunostaining, image analysis); type: in vivo, mouse; settings: TgCRND8 mice
Procedure: Mice. […] This initial dosage was chosen based upon the dosage of myo-cyclohexanehexyl (6-18 grams/day/adult or 86-257 mg/Kg/day) that is typically administered to human patients for various psychiatric disorders. […] A cohort of animals (n=10 mice per treatment arm) entered the study at five months of age, and outcomes were then analyzed after one month of treatment. The body weight, coat characteristics and in cage behaviour were monitored. Mannitol was used as a negative control for potential alterations in caloric intake. All experiments were performed according to the Canadian Council on Animal Care guidelines. Behavioural tests: Morris Water Maze testing was performed as previously described. After non-spatial pre-training, mice underwent place discrimination training for 5 days with 4-trials per day, followed by a cued visible platform to rule out general motivational, learning deficits and motor problems, and a probe trial to evaluate memory. […] Open field test for motor activity was preformed as described previously. Duration of walking, pausing and grooming were analyzed as indices of spontaneous locomotor activity. Sensorimotor function was examined with an Economex™ accelerating rotarod (Columbus Instruments, Columbus, Ohio), as described elsewhere. The rod was set to accelerate at a rate of 0.2 r.p.m./s, from an initial, constant speed of 5 r.p.m. Latency to fall was recorded in four daily trials, conducted at 30 min intervals. All mice were trained for seven days before testing. The test day performance score for each animal was obtained by summing its latency to fall over the four trials. Cerebral amyloid burden. Brains were removed and one hemisphere was fixed in 4% paraformaldehyde and embedded in paraffin wax in the mid sagittal plane. To generate sets of systematic uniform random sections, 5 μm serial sections were collected across the entire hemisphere. Sets of sections at 50 μm intervals were used for analyses (10-14 sections/set). Plaques were identified after antigen retrieval with formic acid, and incubation with primary anti-AD antibody (Dako M-0872), followed by secondary antibody (Dako StreptABCcomplex/horseradish kit). End products were visualized with DAB and were counter-stained with luxol fast blue. Amyloid plaque burden was assessed with Leco IA-3001 image analysis software interfaced with Leica microscope and Hitachi KP-M1U CCD video camera. Openlab imaging software (Improvision, Lexington, Mass.) was then used to convert micrographs to binary images for plaque number and plaque area determinations. Vascular amyloid burden was defined as amyloid originating from or surrounding blood vessels and was analysed similarly. Plasma and Cerebral Aβ Content. Hemi-brain samples were homogenized in a buffered sucrose solution, followed by either 0.4% diethylamine/100 mM NaCl for soluble Aβ levels or cold formic acid for the isolation of total Aβ. After neutralization, the samples were diluted and analyzed for Aβ40 and Aβ42 using commercially available kits (BIOSOURCE International). Each hemisphere was analyzed intriplicate and the mean values ±SEM reported. Western blot analyses were performed on all fractions using urea gels for Aβ species analyses. Aβ was detected using 6E10 (BIOSOURCE International) and Enhanced Chemiluminenscence (Amersham). Gliosis Quantitation. Five randomly selected, evenly spaced, sagittal sections were collected from paraformaldehyde-fixed and frozen hemispheres of treated and control mice. Sections were immunolabelled for astrocytes with anti-rat GFAP IgG2a, (Dako; diluted 1:50) and for microglia with anti-rat CD68 IgG2b (Dako; 1:50).

Aβ42 = molecular target: T1, Aβ42 (Homo sapiens, UniProt P05067); assay: Plasma Aβ42 levels; type: in vivo, mouse; settings: TgCRND8 mice, 28 days of therapy at five months of age
T1 construct: analyzed for Aβ40 and Aβ42 using commercially available kits; from tissue; host or cells: TgCRND8 transgenic mice: hemi-brain (A3) and plasma (A5)
T1 sequence (P05067 672-713): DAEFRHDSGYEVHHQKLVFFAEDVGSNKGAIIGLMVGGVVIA
Procedure: (§1) Mice. […] This initial dosage was chosen based upon the dosage of myo-cyclohexanehexyl (6-18 grams/day/adult or 86-257 mg/Kg/day) that is typically administered to human patients for various psychiatric disorders. […] A cohort of animals (n=10 mice per treatment arm) entered the study at five months of age, and outcomes were then analyzed after one month of treatment. The body weight, coat characteristics and in cage behaviour were monitored. Mannitol was used as a negative control for potential alterations in caloric intake. All experiments were performed according to the Canadian Council on Animal Care guidelines. Behavioural tests: Morris Water Maze testing was performed as previously described. […] Duration of walking, pausing and grooming were analyzed as indices of spontaneous locomotor activity. […] Latency to fall was recorded in four daily trials, conducted at 30 min intervals. […] Amyloid plaque burden was assessed with Leco IA-3001 image analysis software interfaced with Leica microscope and Hitachi KP-M1U CCD video camera. […] Vascular amyloid burden was defined as amyloid originating from or surrounding blood vessels and was analysed similarly. […] After neutralization, the samples were diluted and analyzed for Aβ40 and Aβ42 using commercially available kits (BIOSOURCE International). Each hemisphere was analyzed intriplicate and the mean values ±SEM reported. […] Gliosis Quantitation. […]

TgCRND8 mice [3] = settings: mouse, in vivo
Procedure: as §1

Aβ oligomers = assay: IP/Western blot of Aβ oligomers in 7PA2 conditioned medium; type: cell-based, human
Procedure: (§2) Preparation of conditioned media: CHO— or 7PA2 cells were grown to ˜90% confluency. The cells were washed 1× in serum-free DMEM, then incubated overnight (˜15 hrs) in 4 ml/10 cm dish in serum-free DMEM, pen/strep, 1-glutamine with/without AZD-103. The following day, the conditioned media (CM) was collected, spun at 1000×g and treated with complete protease inhibitors (in mg/ml 1 leupeptin, 1 pepstatin, 0.1 aprotinin, 40 EDTA, and 2 mM 1/10 phenantroline) for biochemistry experiments or cell culture compatible protease inhibitors (Sigma P1860 1:1000) for electrophysiology experiments. The CM was stored at −80° C. until sufficient volumes were collected to complete a “batch”—typically ˜300 ml. […] The resulting concentrate was pooled, aliquoted in 1 ml fractions, and stored at −80° C. […] Therefore, for any given set of experiments (i.e. dose response curve, time curve, etc), a single batch is prepared and compared to 7PA2 alone within that batch.
IP/Western blots: 8 ml of 7PA2 CM were precleared with 40 μl of protein A agarose for 30 min. The beads were spun down, and […] of the polyclonal anti-Aβ antibody R1282 was added to the supernatant with an additional 40 μl of protein A agarose. These samples were nutated at 4° C. overnight. The beads were washed with a series of buffers 0.5 STEN (sodium chloride, tris, EDTA, NP-40), SDS STEN, STEN. 2× tricine sample buffer was added to the washed beads, which were then boiled, centrifuged, and the resulting supernatant loaded onto 10-20% tricine gels. The proteins were then transferred to nitrocellulose, and probed with the anti-Aβ antibody 6E10.

rats = assay: Alternating Lever Cyclic Ratio (ALCR) test after ICV Aβ oligomers; type: in vivo, rat
Procedure: The Aβ oligomers are naturally produced by cells transfected with genes that over-produce the amyloid precursor protein (APP). […] In addition, oligomeric Aβ is extracted from brain homogenate taken from transgenic mice (Tg2576) transfected with the Swedish APP mutation. […] These purified oligomeric forms of Aβ, at physiological concentrations relevant to those found in AD, are injected into the rat's lateral ventricle through an indwelling cannula while the animals are awake and moving. Two hours after injection the rats are tested under sensitive cognitive assay. The assay, the Alternating Lever Cyclic Ratio (ALCR) test, has proven to be much more sensitive than previously published methods for measuring drug effects on cognitive function. In this task, rats must learn a complex sequence of lever-pressing requirements in order to earn food reinforcement in a two-lever experimental chamber. Subjects must alternate between two levers by switching to the other lever after pressing the first lever enough to get food reward. The exact number of presses required for each food reward changes, first increasing from 2 responses per food pellet up to 56 presses per food pellet, then decreasing back to 2 responses per pellet. Intermediate values are based on the quadratic function, x^2−x. One cycle is an entire ascending and descending sequence of these lever press requirements (e.g., 2, 6, 12, 20, 30, 42, 56, 56, 42, 30, 20, 12, 6, and 2 presses per food reward). Six such full cycles are presented during each daily session. […] Oligomeric Aβ: […] These cells secrete oligomeric Aβ into the culture medium (CM) at physiological levels. Aβ oligomers was also derived from Tg2576 mouse brain and purified by size exclusion chromatography. Samples of oligomeric Aβ were characterized by Western Blot Analysis. Appropriate control compounds were produced and tested for each active Aβ oligomeric configuration. Rats: Forty (40) rats were trained under ALCR for approximately 3 months until their error rates are stable. Training sessions were conducted 5 days each week. Surgery: After training, all rats received a single 28 ga. cannula that was permanently affixed to the skull, and aimed at the lateral ventricle (divided equally between left and right). Rats were allowed 5 days to recover from surgery. Administration: In vivo administration of AZD103 to rats was performed by dissolving AZD103 into drinking water. Different concentrations were prepared, and the average daily water intake used to target specific average daily dose levels. These dose levels were therefore approximate. Testing: AZD 103 was tested against Aβ oligomers known to disrupt cognitive function. […] AZD 103 was incubated with the injectate medium containing Aβ oligomers prior to assessing it's affect on ALCR. […] Treatments were assessed in the following order: • 1. […] ICV AZD 103 alone • 3. […] Error Rate Analysis: All error rates under AZD 103 were compared to baseline error rates consisting of at least 3-4 non-treatment days prior to injections. This is a repeated measure within subject design that produces maximum power to detect changes in the error rates. Histology: Upon completion of the study, 20 rat brains were banked. The other 20 brains were evaluated histologically for inflammation, gliosis and cannula placement. […] Serial hematoxylin and eosin stained sections were used to evaluate for cannula placement. These same hemibrains were evaluated for inflammation (neutrophils/lymphocytes/macrophages), gliosis (microglial and astrocytic) and neuron loss using standard hematoxylin and eosin staining as well as specific markers for gliosis as needed.

7PA2 cells = assay: Toxicity observations in 7PA2 cells and LTP controls; type: cell-based, Chinese Hamster; settings: APPs expression, LTP in CHO-/AZD-103 conditions
Procedure: as §2

TgCRND8 mice [4] = assay: Two-month treatment of TgCRND8 mice, cognition and pathology; type: in vivo, mouse; settings: TgCRND8 mice treated for 2 months, ending at 7 months of age
Procedure: Scyllo-inositol was also administered to […]8 mice for 2 months, ending at 7 months of age.

[5] = six month old TgCRND8 mice, 28 days treatment from 5 months
[6] = 28 day course at 5 months of age, vs untreated
[7] = oral, 28 days from 5 months of age, 6 months of age, listed as Scyllo-cyclohexanehexol

Question: What does the source list for `OC1C(O)C(O)C(O)C(O)C1O` (stereo not drawn) [scyllo-cyclohexanehexyl, 1,3,5/2,4,6-(scyllo-) cyclohexanehexyl]?
Answer: probe trial, % time in target quadrant (TgCRND8 mice [1]; separate cohort of treated TgCRND8 mice vs non-Tg littermates): not statistically different from non-Tg littermates; spatial learning performance compared to non-Tg littermates (TgCRND8 mice [1]; [5]): indistinguishable from that of their non-Tg littermates; spatial learning performance compared to untreated TgCRND8 littermates (TgCRND8 mice [1]; [5]): significantly better behavioural performance compared to untreated TgCRND8 mice; also recorded: significantly better than untreated TgCRND8 littermates; percent area of the brain covered by plaques, reduction (TgCRND8 mice [2]; [6]): 14±0.5%; plaque number reduction (TgCRND8 mice [2]; [6]): 13±0.3%; plaque size reduction (TgCRND8 mice [2]; [6]): 16±0.4%; plaque burden in the hippocampus (TgCRND8 mice [2]; one month of treatment, anti-Aβ antibody staining): lower plaque burden; Mean Plaque Size (TgCRND8 mice [2]; [7]): 336 ± 6* μm^2; Total Plaque Area (TgCRND8 mice [2]; [7]): 420027 ± 14986* μm^2; Total Plaque Count (TgCRND8 mice [2]; [7]): 1260 ± 27; Plasma Aβ42 levels (Aβ42): 990 ± 73 pg/mL; grooming or activity in the open field test (TgCRND8 mice [3]): no effect on grooming or activity; sensorimotor function, Rotarod (TgCRND8 mice [3]): no difference; Aβ dimer on Western blots (Aβ oligomers; applied to 7PA2 CM (post-cond)): seemed unaffected; Aβ trimer on Western blots (Aβ oligomers; applied to 7PA2 CM (post-cond), 1.25 μM): reduced the detectability of the Aβ trimer; Aβ dimer and trimer levels, dose response by Western blot (Aβ oligomers; pre-cond and post-cond, measured absolutely and normalized to monomer): appeared to reduce dimer and trimer levels; impact on ALCR performance without oligomers (rats; AZD103 administered without oligomers): no impact on performance; Switching % errors (rats; ICV AZD103 alone, baseline = 100): 99%; Switching % errors (rats; ICV Aβ oligomers incubated ex vivo with AZD103, baseline = 100): 95%; Switching % errors (rats; ICV oligomers after 4 days PO 30 mg/kg/day in drinking water): 109%; Switching % errors (rats; ICV oligomers after 4 days PO 100 mg/kg/day in drinking water): 100%; Switching % errors (rats; ICV oligomers after 4 days PO 300 mg/kg/day in drinking water): 109%; toxicity (7PA2 cells): No direct evidence of AZD-103 toxicity; effects on cognition and pathology (TgCRND8 mice [4]): Sustained effects both on cognition and pathology were observed
